In brackets after ≈: the same amount, converted by molar mass.
Columns and labels:
S. aureus RN4220 = experiment: MIC, agar plate dilution method, S. aureus RN4220; format: cell-based, Staphylococcus aureus; settings: for MIC: Staphylococcus aureus, RN4220, S. aureus RN4220, Sensitive bacterium, read-out: minimal inhibitory concentration (MIC)
Outline: (§1)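 Minimal inhibitory concentration (μg/mL) was determined by agar plate dilution following the Japan Society of Chemotherapy method.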

S. aureus RN4220/pMS520 = experiment: MIC, agar plate dilution method, S. aureus RN4220/pMS520; format: cell-based, Staphylococcus aureus; settings: for MIC: Staphylococcus aureus, MRSA, read-out: minimal inhibitory concentration (MIC), S. aureus RN4220/pMS520, MRSA
Outline: as §1

S. aureus MF490 = experiment: MIC, agar plate dilution method, S. aureus MF490; format: cell-based, Staphylococcus aureus; settings: for MIC: Staphylococcus aureus, MRSA, read-out: minimal inhibitory concentration (MIC)
Outline: as §1

E. faecium ATCC19434 = experiment: MIC, agar plate dilution method, E. faecium ATCC19434; format: cell-based, Enterococcus faecium; settings: for MIC: Enterococcus faecium, ATCC19434, E. faecium ATCC19434, read-out: minimal inhibitory concentration (MIC)
Outline: as §1

E. coli JM109/pMW218 = experiment: MIC, agar plate dilution method, E. coli JM109/pMW218; format: cell-based, Escherichia coli; settings: for MIC: Escherichia coli, JM109/PMW218, E. coli JM109/pMW218, Sensitive bacterium, read-out: minimal inhibitory concentration (MIC)
Outline: as §1

[1] = test system: K. pneumoniae ATCC BAA-1705; experiment: MIC, agar plate dilution method, K. pneumoniae ATCC BAA-1705; format: cell-based, Klebsiella pneumoniae; settings: for MIC: Klebsiella pneumoniae, ATCCBAA1705, K. pneumoniae ATCC BAA-1705, KPC-producing strain, read-out: minimal inhibitory concentration (MIC)
Outline: as §1

[2] = test system: K. pneumoniae ATCC BAA-2146; experiment: MIC, agar plate dilution method, K. pneumoniae ATCC BAA-2146; format: cell-based, Klebsiella pneumoniae; settings: for MIC: Klebsiella pneumoniae, ATCCBAA2146, K. pneumoniae ATCC BAA-2146, NDM-producing strain, read-out: minimal inhibitory concentration (MIC)
Outline: as §1

[3] = test system: A. baumannii ATCC BAA-1710; experiment: MIC, agar plate dilution method, A. baumannii ATCC BAA-1710; format: cell-based, Acinetobacter baumannii; settings: for MIC: Acinetobacter baumannii, ATCCBAA1710, A. baumannii ATCC BAA-1710, MDRA, read-out: minimal inhibitory concentration (MIC)
Outline: as §1

S. marcescens TH-0447 = experiment: MIC, agar plate dilution method, S. marcescens TH-0447; format: cell-based, Serratia marcescens; settings: for MIC: Serratia marcescens, TH0447, S. marcescens TH-0447, AMK-resistant, read-out: minimal inhibitory concentration (MIC)
Outline: as §1

S. marcescens GN6944 = experiment: MIC, agar plate dilution method, S. marcescens GN6944; format: cell-based, Serratia marcescens; settings: S. marcescens GN6944, GM-resistant; for MIC: Serratia marcescens, read-out: minimal inhibitory concentration (MIC)
Outline: as §1

P. aeruginosa PAO1 = experiment: MIC, agar plate dilution method, P. aeruginosa PAO1; format: cell-based, Pseudomonas aeruginosa; settings: for MIC: Pseudomonas aeruginosa, PAO1, P. aeruginosa PAO1, Sensitive bacterium, read-out: minimal inhibitory concentration (MIC)
Outline: as §1

P. aeruginosa PAO1/GN315 = experiment: MIC, agar plate dilution method, P. aeruginosa PAO1/GN315; format: cell-based, Pseudomonas aeruginosa; settings: for MIC: Pseudomonas aeruginosa, read-out: minimal inhibitory concentration (MIC), P. aeruginosa PAO1/GN315, AMK-resistant
Outline: as §1

P. aeruginosa MSC17707 = experiment: MIC, agar plate dilution method, P. aeruginosa MSC17707; format: cell-based, Pseudomonas aeruginosa; settings: for MIC: Pseudomonas aeruginosa, MSC17707, P. aeruginosa MSC17707, AMK-resistant, read-out: minimal inhibitory concentration (MIC)
Outline: as §1

P. aeruginosa MSC01035 = experiment: MIC, agar plate dilution method, P. aeruginosa MSC01035; format: cell-based, Pseudomonas aeruginosa; settings: P. aeruginosa MSC01035, ABK-resistant; for MIC: Pseudomonas aeruginosa, read-out: minimal inhibitory concentration (MIC)
Outline: as §1

Structure (SMILES): CNC1C(O[C@H]2OC(CO)[C@@H](NC(=N)N)[C@H](O)C2O)O[C@H]2CC(N)[C@@H](O[C@@H]3C(N)C[C@@H](N)C[C@H]3O)OC2C1O (stereo partly drawn) [Compound S1-o, 4″-deamino-6-deoxy-5-epi-4″-guanidinoapramycin]
- MIC (S. aureus RN4220): 1 µg/mL (≈ 1.77 µM)
- MIC (S. aureus RN4220/pMS520): 1 µg/mL (≈ 1.77 µM)
- MIC (S. aureus MF490): 2 µg/mL (≈ 3.54 µM)
- MIC (E. faecium ATCC19434): 8 µg/mL (≈ 14.1 µM)
- MIC (E. coli JM109/pMW218): 0.5 µg/mL (≈ 0.884 µM)
- MIC [1]: 1 µg/mL (≈ 1.77 µM)
- MIC [2]: 0.5 µg/mL (≈ 0.884 µM)
- MIC [3]: 4 µg/mL (≈ 7.07 µM)
- MIC (S. marcescens TH-0447): 4 µg/mL (≈ 7.07 µM)
- MIC (S. marcescens GN6944): 2 µg/mL (≈ 3.54 µM)
- MIC (P. aeruginosa PAO1): 2 µg/mL (≈ 3.54 µM)
- MIC (P. aeruginosa PAO1/GN315): 4 µg/mL (≈ 7.07 µM)
- MIC (P. aeruginosa MSC17707): 4 µg/mL (≈ 7.07 µM)
- MIC (P. aeruginosa MSC01035): 4 µg/mL (≈ 7.07 µM)

Structure (SMILES): CNC1C(O[C@H]2OC(C)[C@@H](NC(CN)CN)[C@H](O)C2O)O[C@H]2CC(N)[C@@H](O[C@H]3CC(O)[C@H](N)CC3N)OC2C1O (stereo partly drawn) [Compound S1-p, 4″-N-(1,3-diaminopropan-2-yl)-5,6″-dideoxyapramycin]
- MIC (S. aureus RN4220): 1 µg/mL (≈ 1.73 µM)
- MIC (S. aureus RN4220/pMS520): 1 µg/mL (≈ 1.73 µM)
- MIC (S. aureus MF490): 2 µg/mL (≈ 3.45 µM)
- MIC (E. faecium ATCC19434): 4 µg/mL (≈ 6.9 µM)
- MIC (E. coli JM109/pMW218): 1 µg/mL (≈ 1.73 µM)
- MIC [1]: 1 µg/mL (≈ 1.73 µM)
- MIC [2]: 1 µg/mL (≈ 1.73 µM)
- MIC [3]: 8 µg/mL (≈ 13.8 µM)
- MIC (S. marcescens TH-0447): 8 µg/mL (≈ 13.8 µM)
- MIC (S. marcescens GN6944): 4 µg/mL (≈ 6.9 µM)
- MIC (P. aeruginosa PAO1): 2 µg/mL (≈ 3.45 µM)
- MIC (P. aeruginosa PAO1/GN315): 4 µg/mL (≈ 6.9 µM)
- MIC (P. aeruginosa MSC17707): 4 µg/mL (≈ 6.9 µM)
- MIC (P. aeruginosa MSC01035): 4 µg/mL (≈ 6.9 µM)

Structure (SMILES): CNC1C(O[C@H]2OC(C)[C@@H](NC(=N)N)[C@H](O)C2O)O[C@H]2CC(N)[C@@H](O[C@H]3CC(O)[C@H](N)CC3N)OC2C1O (stereo partly drawn) [Compound S1-q, 4″-deamino-5,6″-dideoxy-4″-guanidinoapramycin]
- MIC (S. aureus RN4220): 1 µg/mL (≈ 1.82 µM)
- MIC (S. aureus RN4220/pMS520): 1 µg/mL (≈ 1.82 µM)
- MIC (S. aureus MF490): 4 µg/mL (≈ 7.28 µM)
- MIC (E. faecium ATCC19434): 4 µg/mL (≈ 7.28 µM)
- MIC (E. coli JM109/pMW218): 0.5 µg/mL (≈ 0.91 µM)
- MIC [1]: 1 µg/mL (≈ 1.82 µM)
- MIC [2]: 0.5 µg/mL (≈ 0.91 µM)
- MIC [3]: 16 µg/mL (≈ 29.1 µM)
- MIC (S. marcescens TH-0447): 4 µg/mL (≈ 7.28 µM)
- MIC (S. marcescens GN6944): 4 µg/mL (≈ 7.28 µM)
- MIC (P. aeruginosa PAO1): 4 µg/mL (≈ 7.28 µM)
- MIC (P. aeruginosa PAO1/GN315): 8 µg/mL (≈ 14.6 µM)
- MIC (P. aeruginosa MSC17707): 8 µg/mL (≈ 14.6 µM)
- MIC (P. aeruginosa MSC01035): 8 µg/mL (≈ 14.6 µM)

Structure (SMILES): CN[C@@H]1[C@@H](O[C@H]2O[C@H](CO)[C@@H](NC)[C@H](O)[C@H]2O)O[C@H]2C[C@@H](N)[C@@H](O[C@H]3CC[C@H](N)C[C@@H]3N)O[C@@H]2[C@@H]1O [Compound T2-a, 5,6-dideoxy-4″-N-methylapramycin]
- minimal inhibitory concentration (MIC) (S. aureus RN4220; S. aureus RN4220, Sensitive bacterium): 2 µg/mL (≈ 3.83 µM)
- minimal inhibitory concentration (MIC) (S. aureus RN4220/pMS520; S. aureus RN4220/pMS520, MRSA): 1 µg/mL (≈ 1.92 µM)
- minimal inhibitory concentration (MIC) (S. aureus MF490; S. aureus MF490, MRSA): 8 µg/mL (≈ 15.3 µM)
- minimal inhibitory concentration (MIC) (E. faecium ATCC19434; E. faecium ATCC19434): 8 µg/mL (≈ 15.3 µM)
- minimal inhibitory concentration (MIC) (E. coli JM109/pMW218; E. coli JM109/pMW218, Sensitive bacterium): 0.5 µg/mL (≈ 0.959 µM)
- minimal inhibitory concentration (MIC) ([1]; K. pneumoniae ATCC BAA-1705, KPC-producing strain): 1 µg/mL (≈ 1.92 µM)
- minimal inhibitory concentration (MIC) ([2]; K. pneumoniae ATCC BAA-2146, NDM-producing strain): 1 µg/mL (≈ 1.92 µM)
- minimal inhibitory concentration (MIC) ([3]; A. baumannii ATCC BAA-1710, MDRA): 4 µg/mL (≈ 7.67 µM)
- minimal inhibitory concentration (MIC) (S. marcescens TH-0447; S. marcescens TH-0447, AMK-resistant): 4 µg/mL (≈ 7.67 µM)
- minimal inhibitory concentration (MIC) (S. marcescens GN6944): 4 µg/mL (≈ 7.67 µM)
- minimal inhibitory concentration (MIC) (P. aeruginosa PAO1; P. aeruginosa PAO1, Sensitive bacterium): 4 µg/mL (≈ 7.67 µM)
- minimal inhibitory concentration (MIC) (P. aeruginosa PAO1/GN315; P. aeruginosa PAO1/GN315, AMK-resistant): 4 µg/mL (≈ 7.67 µM)
- minimal inhibitory concentration (MIC) (P. aeruginosa MSC17707; P. aeruginosa MSC17707, AMK-resistant): 4 µg/mL (≈ 7.67 µM)
- minimal inhibitory concentration (MIC) (P. aeruginosa MSC01035): 4 µg/mL (≈ 7.67 µM)

Structure (SMILES): CNC1C(O[C@H]2OC(CO)[C@@H](NCCN)[C@H](O)C2O)O[C@H]2CC(N)[C@@H](O[C@H]3CC[C@H](N)CC3N)OC2C1O (stereo partly drawn) [Compound T2-b, 4″-N-(2-aminoethyl)-5,6-dideoxyapramycin]
- MIC (S. aureus RN4220): 4 µg/mL (≈ 7.26 µM)
- MIC (S. aureus RN4220/pMS520): 4 µg/mL (≈ 7.26 µM)
- MIC (S. aureus MF490): 8 µg/mL (≈ 14.5 µM)
- MIC (E. faecium ATCC19434): 16 µg/mL (≈ 29.1 µM)
- MIC (E. coli JM109/pMW218): 1 µg/mL (≈ 1.82 µM)
- MIC [1]: 2 µg/mL (≈ 3.63 µM)
- MIC [2]: 2 µg/mL (≈ 3.63 µM)
- MIC [3]: 8 µg/mL (≈ 14.5 µM)
- MIC (S. marcescens TH-0447): 8 µg/mL (≈ 14.5 µM)
- MIC (S. marcescens GN6944): 8 µg/mL (≈ 14.5 µM)
- MIC (P. aeruginosa PAO1): 8 µg/mL (≈ 14.5 µM)
- MIC (P. aeruginosa PAO1/GN315): 8 µg/mL (≈ 14.5 µM)
- MIC (P. aeruginosa MSC17707): 8 µg/mL (≈ 14.5 µM)
- MIC (P. aeruginosa MSC01035): 16 µg/mL (≈ 29.1 µM)

Structure (SMILES): CNC1C(O[C@H]2OC(CO)[C@@H](NCCCN)[C@H](O)C2O)O[C@H]2CC(N)[C@@H](O[C@H]3CC[C@H](N)CC3N)OC2C1O (stereo partly drawn) [Compound T2-c, 4″-N-(3-aminopropyl)-5,6-dideoxyapramycin]
- MIC (S. aureus RN4220): 2 µg/mL (≈ 3.54 µM)
- MIC (S. aureus RN4220/pMS520): 2 µg/mL (≈ 3.54 µM)
- MIC (S. aureus MF490): 8 µg/mL (≈ 14.2 µM)
- MIC (E. faecium ATCC19434): 8 µg/mL (≈ 14.2 µM)
- MIC (E. coli JM109/pMW218): 1 µg/mL (≈ 1.77 µM)
- MIC [1]: 1 µg/mL (≈ 1.77 µM)
- MIC [2]: 1 µg/mL (≈ 1.77 µM)
- MIC [3]: 4 µg/mL (≈ 7.08 µM)
- MIC (S. marcescens TH-0447): 8 µg/mL (≈ 14.2 µM)
- MIC (S. marcescens GN6944): 4 µg/mL (≈ 7.08 µM)
- MIC (P. aeruginosa PAO1): 4 µg/mL (≈ 7.08 µM)
- MIC (P. aeruginosa PAO1/GN315): 4 µg/mL (≈ 7.08 µM)
- MIC (P. aeruginosa MSC17707): 4 µg/mL (≈ 7.08 µM)
- MIC (P. aeruginosa MSC01035): 8 µg/mL (≈ 14.2 µM)
